SMILES strings stand for the structures.

We go through 30 compounds from patent publication US10980809B2, “Urea-substituted aromatic ring-linked dioxane-quinazoline and -linked dioxane-quinoline compounds, preparation method therefor and use thereof” (BEIJING SCITECH-MQ PHARMACEUTICALS LIMITED, priority 2017, dated 2021).

Chain of VEGFR-2 kinase (P35968 20-1356): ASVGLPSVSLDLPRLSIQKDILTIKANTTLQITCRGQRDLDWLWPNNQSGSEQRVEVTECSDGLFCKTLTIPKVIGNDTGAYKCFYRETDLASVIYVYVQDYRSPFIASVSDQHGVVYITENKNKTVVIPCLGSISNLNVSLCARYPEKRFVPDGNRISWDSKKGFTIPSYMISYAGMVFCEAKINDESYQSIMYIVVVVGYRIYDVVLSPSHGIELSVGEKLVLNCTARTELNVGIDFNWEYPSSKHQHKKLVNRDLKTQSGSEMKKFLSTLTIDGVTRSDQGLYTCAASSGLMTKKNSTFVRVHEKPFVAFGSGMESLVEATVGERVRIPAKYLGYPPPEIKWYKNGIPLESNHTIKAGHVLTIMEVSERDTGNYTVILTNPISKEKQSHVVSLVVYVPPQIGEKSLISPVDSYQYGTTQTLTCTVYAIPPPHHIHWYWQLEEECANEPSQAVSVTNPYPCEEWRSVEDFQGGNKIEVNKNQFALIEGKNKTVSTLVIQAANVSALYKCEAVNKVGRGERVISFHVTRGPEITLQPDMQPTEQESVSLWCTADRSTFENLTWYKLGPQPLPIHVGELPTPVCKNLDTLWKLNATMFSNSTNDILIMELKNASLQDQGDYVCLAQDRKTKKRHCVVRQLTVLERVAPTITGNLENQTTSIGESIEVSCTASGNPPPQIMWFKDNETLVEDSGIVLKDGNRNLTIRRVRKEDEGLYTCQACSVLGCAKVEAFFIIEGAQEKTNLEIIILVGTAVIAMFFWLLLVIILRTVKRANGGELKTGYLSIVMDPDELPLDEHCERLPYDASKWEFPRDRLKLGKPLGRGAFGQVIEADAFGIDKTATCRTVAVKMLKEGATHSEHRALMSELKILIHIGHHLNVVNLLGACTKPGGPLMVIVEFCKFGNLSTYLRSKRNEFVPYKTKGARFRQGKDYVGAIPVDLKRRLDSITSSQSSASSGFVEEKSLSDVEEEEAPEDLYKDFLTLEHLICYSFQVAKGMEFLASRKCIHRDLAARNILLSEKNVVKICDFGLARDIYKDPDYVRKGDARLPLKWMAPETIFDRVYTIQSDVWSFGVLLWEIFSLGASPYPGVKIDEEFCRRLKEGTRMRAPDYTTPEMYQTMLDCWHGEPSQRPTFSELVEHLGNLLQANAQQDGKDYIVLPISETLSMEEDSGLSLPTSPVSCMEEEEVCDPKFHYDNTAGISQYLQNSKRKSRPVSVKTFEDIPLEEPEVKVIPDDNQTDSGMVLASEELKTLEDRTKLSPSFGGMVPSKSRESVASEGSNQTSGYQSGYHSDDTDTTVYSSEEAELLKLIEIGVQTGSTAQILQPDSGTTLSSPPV

The target in this experiment is VEGFR-2 kinase (Homo sapiens (Human), UniProt P35968). The experiment can be described thus: Test of small molecule compounds for inhibiting the activity of VEGFR-2 kinase. The settings on record: class symbols A-D. Type of experiment: biochemical. The protocol:
Test of Small Molecule Compounds for Inhibiting the Activity of VEGFR-2 Kinase
The test was carried out as follows:
2. 2.5 μl of the gradient-diluted compounds was taken with a transfer pipette to a 384-well plate,
3. Addition of enzyme: 5 μl of 2×VEGFR-2 kinase was taken with a transfer pipette to the corresponding reaction well of the 384-well plate, which was mixed and pre-reacted at room temperature for 30 min,
5. Negative control: 2.5 μl/well 4× substrate/ATP Mix and 7.5 μl 1× Kinase Assay Buffer were added to the wells of the 384-well plate,
Positive control: 2.5 μl/well 4× substrate/ATP Mix, 2.5 μl/well 1× Kinase Assay Buffer containing 4% DMSO, and 5 μl/well 2×VEGFR-2 solution were added to the 384-well plate. The final concentration of DMSO in the reaction system is […],
6. The mixture was mixed well and then centrifuged and reacted at room temperature in dark for 60 min,
9. The 384-well plate was placed into the Envision plate reader and the signal was detected using the appropriate program,
What is called IC50 is the midpoint of a concentration-inhibition curve. On to `COc1cc2ncnc(Nc3ccc(NC(=O)Nc4ccccc4)c(Cl)c3)c2c2c1OCCO2` [Example 6, 1-(2-chloro-4-((5-methoxy-2,3-dihydro-[1,4]dioxino[2,3-f]quinazolin-10-yl)amino)phenyl)-3-phenylurea], for which the IC50 was 50 to 500 nM.

In the case of `COc1cc2ncnc(Oc3ccc(NC(=O)Nc4ccccc4)c(Cl)c3)c2c2c1OCCO2` [Example 14, 1-(2-chloro-4-((5-methoxy-2,3-dihydro-[1,4]dioxino[2,3-f]quinazolin-10-yl)oxy)phenyl)-3-phenylurea], the IC50 was less than 50 nM.

`O=C(Nc1ccc(Cl)c(C(F)(F)F)c1)Nc1ccc(Oc2ncnc3cc(OCCCN4CCOCC4)c4c(c23)OCCO4)cc1F` [Example 69, 1-(4-chloro-3-(trifluoromethyl)phenyl)-3-(2-fluoro-4-((5-(3-morpholinopropoxy)-2,3-dihydro-[1,4]dioxino[2,3-f]quinazolin-10-yl)oxy)phenyl)urea] gave an IC50 of less than 50 nM.

For `COCCOc1cc2ncnc(Nc3ccc(NC(=O)Nc4ccccn4)c(Cl)c3)c2c2c1OCCO2` [Example 36, 1-(2-chloro-4-((5-(2-methoxyethoxy)-2,3-dihydro-[1,4]dioxino[2,3-f]quinazolin-10-yl)amino)phenyl)-3-(pyridin-2-yl)urea], the IC50 is greater than 5000 nM.

`CN(C)CCCOc1cc2ncnc(Nc3ccc(NC(=O)NC4CC4)c(Cl)c3)c2c2c1OCCO2` [Example 82, 1-(2-chloro-4-((5-(3-(dimethylamino)propoxy)-2,3-dihydro-[1,4]dioxino[2,3-f]quinazolin-10-yl)amino)phenyl)-3-cyclopropylurea] returned an IC50 of less than 50 nM.

In the case of `COc1cc2ncnc(Oc3ccc(NC(=O)Nc4ccc(F)cc4)c(Cl)c3)c2c2c1OCCO2` [Example 16, 1-(2-chloro-4-((5-methoxy-2,3-dihydro-[1,4]dioxino[2,3-f]quinazolin-10-yl)oxy)phenyl)-3-(4-fluorophenyl)urea], the IC50 was less than 50 nM.

On to `COc1cc(NC(=O)Nc2ccc(Nc3ncnc4cc(OC)c5c(c34)OCCO5)cc2Cl)ccn1` [Example 10, 1-(2-chloro-4-((5-methoxy-2,3-dihydro-[1,4]dioxino[2,3-f]quinazolin-10-yl)amino)phenyl)-3-(2-methoxypyridin-4-yl)urea], for which the IC50 is less than 50 nM.

Consider `COc1cc2ncnc(Oc3ccc(NC(=O)NC(C)C)c(Cl)c3)c2c2c1OCCO2` [Example 15, 1-(2-chloro-4-((5-methoxy-2,3-dihydro-[1,4]dioxino[2,3-f]quinazolin-10-yl)oxy)phenyl)-3-isopropylurea], for which the IC50 is less than 50 nM.

For `O=C(Nc1ccc(Nc2ncnc3cc(OCCCN4CCOCC4)c4c(c23)OCCO4)cc1Cl)NC1CC1` [Example 63], the IC50 is less than 50 nM.

`COCCOc1cc2ncnc(Oc3ccc(NC(=O)NC4CCC4)c(Cl)c3)c2c2c1OCCO2` [Example 54, 1-(2-chloro-4-((5-(2-methoxyethoxy)-2,3-dihydro-[1,4]dioxino[2,3-f]quinazolin-10-yl)oxy)phenyl)-3-cyclobutylurea] displayed an IC50 of less than 50 nM.

Compound `COCCOc1cc2ncnc(Nc3ccc(NC(=O)Nc4ccc(F)cc4)c(Cl)c3)c2c2c1OCCO2` [Example 38, 1-(2-chloro-4-((5-(2-methoxyethoxy)-2,3-dihydro-[1,4]dioxino[2,3-f]quinazolin-10-yl)amino)phenyl)-3-(4-fluorophenyl)urea] registered an IC50 of less than 50 nM.

On to `O=C(Nc1ccc(Oc2ncnc3cc(OCCCN4CCS(=O)(=O)CC4)c4c(c23)OCCO4)cc1)Nc1cc(C(F)(F)F)ccc1F` [Example 81, 1-(4-((5-(3-(1,1-dioxidothiomorpholino)propoxy)-2,3-dihydro-[1,4]dioxino[2,3-f]quinazolin-10-yl)oxy)phenyl)-3-(2-fluoro-5-(trifluoromethyl)phenyl)urea], for which the IC50 is less than 50 nM.

`O=C(Nc1ccc(Nc2ncnc3cc(OCCCN4CCCC4)c4c(c23)OCCO4)cc1Cl)NC1CC1` [Example 61, 1-(2-chloro-4-((5-(3-(pyrrolidin-1-yl)propoxy)-2,3-dihydro-[1,4]dioxino[2,3-f]quinazolin-10-yl)amino)phenyl)-3-cyclopropylurea] returned an IC50 of less than 50 nM.

`COc1cc2nccc(Oc3ccc(NC(=O)Nc4ccc(Cl)c(C(F)(F)F)c4)c(F)c3)c2c2c1OCCO2` [Example 92, 1-(4-chloro-3-(trifluoromethyl)phenyl)-3-(2-fluoro-4-((5-methoxy-2,3-dihydro-[1,4]dioxino[2,3-f]quinoline-10-yl)oxy)phenyl)urea] yielded an IC50 of 50 to 500 nM.

In turn, `COCCOc1cc2ncnc(Nc3ccc(NC(=O)Nc4ccc(Oc5ccccc5)cc4)c(Cl)c3)c2c2c1OCCO2` [Example 44, 1-(2-chloro-4-((5-(2-methoxyethoxy)-2,3-dihydro-[1,4]dioxino[2,3-f]quinazolin-10-yl)amino)phenyl)-3-(4-(phenoxy)phenyl)urea] returned an IC50 greater than 5000 nM.

In turn, `O=C(Nc1ccc(Oc2ncnc3cc(OCCCN4CCOCC4)c4c(c23)OCCO4)cc1)Nc1ccc(F)c(C(F)(F)F)c1` [Example 75, 1-(4-fluoro-3-(trifluoromethyl)phenyl)-3-(4-((5-(3-morpholinopropoxy)-2,3-dihydro-[1,4]dioxino[2,3-f]quinazolin-10-yl)oxy)phenyl)urea] showed an IC50 of less than 50 nM.

Turning to `COc1cc2ncnc(Nc3ccc(NC(=O)NC(C)C)c(Cl)c3)c2c2c1OCCO2` [Example 9, 1-(2-chloro-4-((5-methoxy-2,3-dihydro-[1,4]dioxino[2,3-f]quinazolin-10-yl)amino)phenyl)-3-isopropylurea], the IC50 lay within 50 to 500 nM.

As for `COc1cc2ncnc(Nc3ccc(NC(=O)Nc4ccc(C(F)(F)F)cc4F)c(Cl)c3)c2c2c1OCCO2` [Example 12, 1-(2-chloro-4-((5-methoxy-2,3-dihydro-[1,4]dioxino[2,3-f]quinazolin-10-yl)amino)phenyl)-3-(2-fluoro-4-(trifluoromethyl)phenyl)urea], the IC50 was less than 50 nM.

Compound `CCOc1cc2ncnc(Oc3ccc(NC(=O)Nc4cc(C(F)(F)F)ccc4F)cc3)c2c2c1OCCO2` [Example 77, 1-(4-((5-ethoxy-2,3-dihydro-[1,4]dioxino[2,3-f]quinazolin-10-yl)oxy)phenyl)-3-(2-fluoro-5-(trifluoromethyl)phenyl)urea] registered a 50% inhibitory concentration (IC50) of less than 50 nM.

`COc1cc2ncnc(Nc3ccc(NC(=O)NC4CCCCC4)c(Cl)c3)c2c2c1OCCO2` [Example 29, 1-(2-chloro-4-((5-methoxy-2,3-dihydro-[1,4]dioxino[2,3-f]quinazolin-10-yl)amino)phenyl)-3-cyclohexylurea] came in with an IC50 of 500 to 5000 nM.

The compound `COc1cc2ncnc(Oc3ccc(NC(=O)NC4CCCC4)c(Cl)c3)c2c2c1OCCO2` [Example 32, 1-(2-chloro-4-((5-methoxy-2,3-dihydro-[1,4]dioxino[2,3-f]quinazolin-10-yl)oxy)phenyl)-3-cyclopentylurea] registered an IC50 of less than 50 nM.

As for `COCCOc1cc2ncnc(Nc3ccc(NC(=O)Nc4ccnc(OC)c4)c(Cl)c3)c2c2c1OCCO2` [Example 41, 1-(2-chloro-4-((5-(2-methoxyethoxy)-2,3-dihydro-[1,4]dioxino[2,3-f]quinazolin-10-yl)amino)phenyl)-3-(2-methoxypyridin-4-yl)urea], the 50% inhibitory concentration (IC50) was less than 50 nM.

Compound `COCCCCCCOc1cc2ncnc(Oc3ccc(NC(=O)NC4CC4)c(Cl)c3)c2c2c1OCCO2` [Example 88] returned an IC50 of less than 50 nM.

Turning to `COc1cc2ncnc(Nc3ccc(NC(=O)Nc4ccc(F)cc4)c(Cl)c3)c2c2c1OCCO2` [Example 7, 1-(2-chloro-4-((5-methoxy-2,3-dihydro-[1,4]dioxino[2,3-f]quinazolin-10-yl)amino)phenyl)-3-(4-fluorophenyl)urea], the IC50 was less than 50 nM.

Regarding `COCCOc1cc2nccc(Oc3ccc(NC(=O)Nc4ccc(Cl)c(C(F)(F)F)c4)cc3)c2c2c1OCCO2` [Example 93, 1-(4-chloro-3-(trifluoromethyl)phenyl)-3-(4-((5-(2-methoxyethoxy)-2,3-dihydro-[1,4]dioxino[2,3-f]quinoline-10-yl)oxy)phenyl)urea], the IC50 was 50 to 500 nM.

Consider `COc1cc2ncnc(Oc3ccc(NC(=O)NC4CCCCC4)c(Cl)c3)c2c2c1OCCO2` [Example 33, 1-(2-chloro-4-((5-methoxy-2,3-dihydro-[1,4]dioxino[2,3-f]quinazolin-10-yl)oxy)phenyl)-3-cyclohexylurea], for which the IC50 was less than 50 nM.

On to `COCCOc1cc2ncnc(Oc3ccc(NC(=O)Nc4ccc(Cl)c(C(F)(F)F)c4)cc3F)c2c2c1OCCO2` [Example 59, 1-(4-chloro-3-(trifluoromethyl)phenyl)-3-(3-fluoro-4-((5-(2-methoxyethoxy)-2,3-dihydro-[1,4]dioxino[2,3-f]quinazolin-10-yl)oxy)phenyl)urea], for which the half-maximal inhibitory concentration (IC50) is less than 50 nM.

Consider `COCCOc1cc2ncnc(Nc3ccc(NC(=O)Nc4cccc(OC)c4)c(Cl)c3)c2c2c1OCCO2` [Example 35, 1-(2-chloro-4-((5-(2-methoxyethoxy)-2,3-dihydro-[1,4]dioxino[2,3-f]quinazolin-10-yl)amino)phenyl)-3-(3-methoxyphenyl)urea], for which the IC50 was less than 50 nM.

The compound `COc1cc2ncnc(Nc3ccc(NC(=O)NCCC(C)C)c(Cl)c3)c2c2c1OCCO2` [Example 30, 1-(2-chloro-4-((5-methoxy-2,3-dihydro-[1,4]dioxino[2,3-f]quinazolin-10-yl)amino)phenyl)-3-isopentylurea] had an IC50 of less than 50 nM.

On to `O=C(Nc1ccc(Oc2ncnc3cc(OCCN4CCCC4)c4c(c23)OCCO4)cc1)Nc1cc(C(F)(F)F)ccc1F` [Example 76, 1-(2-fluoro-5-(trifluoromethyl)phenyl)-3-(4-((5-(2-(tetrahydropyrrol-1-yl)ethoxy)-2,3-dihydro-[1,4]dioxino[2,3-f]quinazolin-10-yl)oxy)phenyl)urea], for which the IC50 is greater than 5000 nM.
